Assay results from US11458138B2 (Novartis AG, priority 2017, dated 2022).

Columns and labels:
LATS1 = LATS1 (Homo sapiens (Human), UniProt O95835); test: LATS1 biochemical assay (Table 1A, Compound Examples 1-290; method in the earlier part)
[1] = test system: Phospho-YAP (SER127) in HaCaT cells; test: pYAP HTRF Assay (HaCaT Cells); type: cell-based, human; conditions: Homo sapiens, 2 hours
In short: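 Phospho-YAP (Ser127) was measured by HTRF (665 nm/620 nm ratio) in HaCaT cells. Cells were grown 48 hours at 37° C at 5500 cells/well, exposed to compound for 2 hours, and incubated with detection reagents for 20 hrs at room temperature.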

[2] = test system: Phospho-YAP (Ser127) in JHH-5 cells; test: pYAP HTRF Assay (JHH-5 cells); type: cell-based; conditions: 2 hours
Protocol: Briefly, JHH-5 cells are suspended at 0.48×10^6 cells/ml in William's E medium without phenol-red (Thermo Fisher Scientific Gibco catalog number A1217601) supplemented with 10% (v/v) heat-inactivated fetal bovine serum (Thermo Fisher Scientific Gibco catalog number 16140071) and penicillin-streptomycin at 100 U/ml each (Thermo Fisher Scientific Gibco catalog number 15140122). Cells are dispensed into 384well clear bottom culture plates (50 ul/well, at 24000 cells per well, Greiner catalog number 781091), and incubated for 24 hours in a cell culture incubator at 37° C. Test compounds are transferred into culture plates containing JHH-5 cells using an Echo550 (Labcyte) acoustic dispenser (50 nl/well), followed by incubation for 2 hours at 37° C. Lysis buffer (part of CisBio kit catalog number 64YAPPEI) is added to the assay plates as a four-fold concentrate (corresponding to 16 ul/well) and incubated for 30 minutes at room temperature with agitation. Lysate is transferred from culture plates into white low-volume 384well assay plates (12 ul/well, Greiner catalog number 784075), followed by the addition of 3 ul/well of detection antibodies (part of CisBio kit catalog number 64YAPPEI: 1:40 dilution of each pYAP d2 antibody and pYAP cryptate antibody stocks). The plates are sealed and incubated overnight (18 hours) at room temperature protected from light. Plates are read on an EnVision plate reader (Perkin Elmer) at emission wavelengths of 665 nm and 620 nm. The HTRF signal ratio x per well is calculated as [x=Signal(665 nm)/Signal(620 nm)×10000] as specified in the manufacturer's protocol.

[3] = test system: YAP nuclear translocation in HaCaT cells; test: YAP Translocation Assay (HaCaT Cells); type: cell-based, human; conditions: Homo sapiens, 24 hours
In short: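 HaCaT cells (20,000/well) in DMEM + 10% FBS were plated overnight at 37° C, then exposed to compound for 24 h at 37° C. Cells were fixed with PFA, permeabilized with 0.1% Triton/1.5% BSA and imaged by high-content imaging.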

Chain of LATS1 (O95835 whole entry, looked up): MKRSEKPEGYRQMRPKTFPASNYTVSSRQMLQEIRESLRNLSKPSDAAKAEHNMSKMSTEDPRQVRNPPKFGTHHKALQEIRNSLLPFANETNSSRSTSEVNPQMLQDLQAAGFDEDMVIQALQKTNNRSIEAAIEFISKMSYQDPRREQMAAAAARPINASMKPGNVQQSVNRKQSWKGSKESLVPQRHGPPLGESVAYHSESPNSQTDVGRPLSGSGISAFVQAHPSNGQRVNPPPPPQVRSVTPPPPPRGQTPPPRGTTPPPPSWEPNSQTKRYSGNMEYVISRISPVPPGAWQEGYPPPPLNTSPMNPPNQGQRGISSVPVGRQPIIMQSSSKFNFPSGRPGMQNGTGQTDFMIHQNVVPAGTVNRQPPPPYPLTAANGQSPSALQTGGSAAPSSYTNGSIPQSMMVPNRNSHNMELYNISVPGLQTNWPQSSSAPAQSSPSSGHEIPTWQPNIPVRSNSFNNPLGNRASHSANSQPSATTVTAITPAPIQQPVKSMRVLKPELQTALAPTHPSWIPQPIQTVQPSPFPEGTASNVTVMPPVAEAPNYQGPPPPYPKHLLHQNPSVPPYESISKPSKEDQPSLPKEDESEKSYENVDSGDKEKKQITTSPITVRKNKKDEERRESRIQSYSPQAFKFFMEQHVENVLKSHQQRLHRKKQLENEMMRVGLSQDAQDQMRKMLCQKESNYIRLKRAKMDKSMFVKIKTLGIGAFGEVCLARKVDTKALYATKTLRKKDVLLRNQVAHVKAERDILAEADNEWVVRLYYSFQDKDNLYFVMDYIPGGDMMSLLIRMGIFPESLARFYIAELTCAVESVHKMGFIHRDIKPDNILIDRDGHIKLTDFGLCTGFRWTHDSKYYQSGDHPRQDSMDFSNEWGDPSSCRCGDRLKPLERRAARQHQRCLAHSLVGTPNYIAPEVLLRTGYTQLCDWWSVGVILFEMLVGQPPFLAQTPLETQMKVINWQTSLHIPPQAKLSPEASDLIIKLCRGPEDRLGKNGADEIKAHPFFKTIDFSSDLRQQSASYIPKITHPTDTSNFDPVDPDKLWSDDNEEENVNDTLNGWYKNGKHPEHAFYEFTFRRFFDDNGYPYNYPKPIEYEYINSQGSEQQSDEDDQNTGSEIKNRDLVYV
Chain of LATS1 (Q7L9L4 whole entry partner, looked up): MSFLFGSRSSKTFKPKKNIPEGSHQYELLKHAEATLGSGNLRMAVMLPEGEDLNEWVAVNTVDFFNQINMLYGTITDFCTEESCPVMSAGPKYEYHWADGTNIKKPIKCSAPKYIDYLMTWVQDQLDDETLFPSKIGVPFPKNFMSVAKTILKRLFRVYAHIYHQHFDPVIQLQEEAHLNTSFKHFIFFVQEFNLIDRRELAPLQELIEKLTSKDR

CC(C)(C)Nc1cc(-c2ccnc(N)n2)nc2cnccc12 [Example 271, 2-(2-aminopyrimidin-4-yl)-N-tert-butyl-1,7-naphthyridin-4-amine]
IC50 (LATS1): 2 nM | IC50 [1]: 187 nM | IC50 [2]: 800 nM | EC50 [3]: 1070 nM

CC(C)OCC(C)(C)Nc1cc(-c2ccncc2)nc2cnccc12 [Example 255, N-[2-methyl-1-(propan-2-yloxy)propan-2-yl]-2-(pyridin-4-yl)-1,7-naphthyridin-4-amine]
IC50 (LATS1): 8 nM | IC50 [1]: 3180 nM | IC50 [2]: 7100 nM | EC50 [3]: 5390 nM

CC(C)(CC(=O)O)Nc1nc(-c2ccncc2)nc2cnccc12 [Example 40, 3-methyl-3-{[2-(pyridin-4-yl)pyrido[3,4-d]pyrimidin-4-yl]amino}butanoic acid]
IC50 (LATS1): 328 nM | IC50 [1]: > 10000 nM | IC50 [2]: > 10000 nM | EC50 [3]: > 20000 nM

CCN(C)c1nc(-c2ccncc2)nc2cnccc12 [Example 10, N-ethyl-N-methyl-2-(pyridin-4-yl)pyrido[3,4-d]pyrimidin-4-amine]
IC50 (LATS1): 3 nM | IC50 [1]: 2960 nM | IC50 [2]: 8700 nM | EC50 [3]: 3550 nM

CC(C)(C)CC(C)(C)Nc1nc(-c2ccncc2)nc2cnccc12 [Example 72, 2-(pyridin-4-yl)-N-(2,4,4-trimethylpentan-2-yl)pyrido[3,4-d]pyrimidin-4-amine]
IC50 (LATS1): 4 nM | IC50 [1]: 1170 nM | IC50 [2]: 4600 nM | EC50 [3]: 3650 nM

CC(C)(C)Nc1nc(-c2ccnc(N)c2)nc2cnccc12 [Example 112, 4-[4-(tert-butylamino)pyrido[3,4-d]pyrimidin-2-yl]pyridin-2-amine]
IC50 (LATS1): 2 nM | IC50 [1]: 1210 nM | IC50 [2]: 3200 nM | EC50 [3]: 3520 nM

CCC(C)Nc1nc(-c2ccncc2)nc2cnccc12 (centres unmarked) [Example 68, N-(butan-2-yl)-2-(pyridin-4-yl)pyrido[3,4-d]pyrimidin-4-amine]
IC50 (LATS1): 2 nM | IC50 [1]: 1230 nM | IC50 [2]: 3500 nM | EC50 [3]: 3390 nM

COCC(C)(C)Nc1nc(-c2ccncc2)nc2cnccc12 [Example 7, N-(1-methoxy-2-methylpropan-2-yl)-2-(pyridin-4-yl)pyrido[3,4-d]pyrimidin-4-amine]
IC50 (LATS1): 2 nM | IC50 [1]: 165 nM | IC50 [2]: 1600 nM | EC50 [3]: 733 nM

Cc1n[nH]cc1-c1cc(NC(C)(C)C)c2ccncc2n1 [Example 269, N-tert-butyl-2-(3-methyl-1H-pyrazol-4-yl)-1,7-naphthyridin-4-amine]
IC50 (LATS1): 1 nM | IC50 [1]: 294 nM | IC50 [2]: 800 nM | EC50 [3]: 438 nM

CC(C)(O)C(C)(C)Nc1nc(-c2ccncc2)nc2cnccc12 [Example 71, 2,3-dimethyl-3-{[2-(pyridin-4-yl)pyrido[3,4-d]pyrimidin-4-yl]amino}butan-2-ol]
IC50 (LATS1): 4 nM | IC50 [1]: 26 nM | IC50 [2]: > 10000 nM | EC50 [3]: 1570 nM

COCCC(C)(C)Nc1cc(-c2ccncc2)nc2cnccc12 [Example 254, N-(4-methoxy-2-methylbutan-2-yl)-2-(pyridin-4-yl)-1,7-naphthyridin-4-amine]
IC50 (LATS1): 5 nM | IC50 [1]: 2910 nM | IC50 [2]: 1300 nM | EC50 [3]: 4630 nM

CCN(c1nc(-c2ccncc2)nc2cnccc12)C(C)C [Example 3, N-ethyl-N-(propan-2-yl)-2-(pyridin-4-yl)pyrido[3,4-d]pyrimidin-4-amine]
IC50 (LATS1): 1 nM | IC50 [1]: 853 nM | IC50 [2]: 1000 nM | EC50 [3]: 641 nM

CC(C)(C)Nc1cc(-c2ccnc3[nH]ccc23)nc2cnccc12 [Example 272, N-tert-butyl-2-{1H-pyrrolo[2,3-b]pyridin-4-yl}-1,7-naphthyridin-4-amine]
IC50 (LATS1): 2 nM | IC50 [1]: 3510 nM | IC50 [2]: 8100 nM | EC50 [3]: 5970 nM

CN(C)CCC(C)(C)Nc1nc(-c2ccncc2)nc2cnccc12 [Example 109, dimethyl(3-methyl-3-{[2-(pyridin-4-yl)pyrido[3,4-d]pyrimidin-4-yl]amino}butyl)amine]
IC50 [1]: 977 nM | IC50 [2]: 1500 nM | EC50 [3]: 4710 nM

CC(C)(O)COCC(C)(C)Nc1cc(-c2ccncc2)nc2cnccc12 [Example 267, 2-methyl-1-(2-methyl-2-{[2-(pyridin-4-yl)-1,7-naphthyridin-4-yl]amino}propoxy)propan-2-ol]
IC50 (LATS1): 13 nM | IC50 [1]: 7190 nM | IC50 [2]: 5900 nM | EC50 [3]: 9750 nM
